Converted amounts (≈) assume the structure as drawn. Where two headings read alike, the source gives them in different places.
Key:
[1] = test system: Streptococcus Pneumoniae Pen S; experiment: MIC microdilution, S. Pneumoniae Pen S; assay type: cell-based; conditions: read-out: MIC Streptococcus Pneumoniae Pen S
Protocol: (§1) Minimum inhibitory concentrations (MICs) were determined using the microdilution method in 96-well format plates. Each of the compounds of Examples was dissolved in dimethyl sulfoxide to a concentration of 2 mg/mL and stored at 4° C. until used. They were diluted in Mueller-Hinton Broth (MHB) and used for MIC determination. The range of concentrations tested was […] final concentration using a two-fold dilution system. Plates were incubated at 37° C. and MIC were recorded after 24 hours of incubation for bacteria.
(§2) Linezolid and vancomycin were used as standard antibiotics, respectively.

[2] = target: PDF enzyme (Escherichia coli, UniProt P0A6K3); experiment: PDF/FDH coupled enzyme assay, E. coli; assay type: biochemical
Sequence of PDF enzyme (Escherichia coli, UniProt P0A6K3) (P0A6K3 whole entry): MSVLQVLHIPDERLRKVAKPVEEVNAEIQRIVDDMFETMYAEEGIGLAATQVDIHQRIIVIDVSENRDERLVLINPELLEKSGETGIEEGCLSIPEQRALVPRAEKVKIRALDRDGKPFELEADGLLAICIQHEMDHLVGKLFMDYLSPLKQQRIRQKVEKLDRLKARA
Protocol: Activities of PDF enzyme for E. coli and S. aureus were determined using PDF/FDH coupled assay. In this coupled assay, the formate released by PDF from its substrate formyl-Methionine-Alanine-Serine (fMAS) is oxidized by coupling enzyme formate dehydrogenase (FDH), reducing one molecule of NAD^+ to NADH, which is measured absorption at 340 nm.

[3] = test system: Streptococcus pyogenes; experiment: MIC microdilution, S. pyogenes; assay type: cell-based; conditions: read-out: MIC Streptococcus pyogenes
Protocol: as §1, §2

[4] = target: T1, PDF enzyme (Streptococcus pneumoniae serotype 4, UniProt Q9F2F0); experiment: PDF/FDH coupled enzyme assay, Streptococcus Pneumoniae; assay type: biochemical; conditions: substrate fMAS, absorption at 340 nm
T1 sequence (Q9F2F0 1-203): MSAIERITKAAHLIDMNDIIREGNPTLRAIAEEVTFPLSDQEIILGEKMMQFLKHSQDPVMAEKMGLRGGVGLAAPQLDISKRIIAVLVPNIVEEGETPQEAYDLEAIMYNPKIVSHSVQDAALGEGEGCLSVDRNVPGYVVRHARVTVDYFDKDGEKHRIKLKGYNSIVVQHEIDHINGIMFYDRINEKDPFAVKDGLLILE

[5] = test system: Vancomycin-resistant Enterococcus faecalis; experiment: MIC microdilution, VR E. faecalis; assay type: cell-based; conditions: read-out: MIC Vancomycin-resistant Enterococcus faecalis
Protocol: as §1, §2

[6] = test system: Streptococcus Pneumoniae Pen NS; experiment: MIC microdilution, S. Pneumoniae Pen NS; assay type: cell-based; conditions: read-out: MIC Streptococcus Pneumoniae Pen NS
Protocol: as §1, §2

[7] = test system: Vancomycin-resistant Enterococcus faecium; experiment: MIC microdilution, VR E. faecium; assay type: cell-based; conditions: read-out: MIC Vancomycin-resistant Enterococcus faecium
Protocol: as §1, §2

[8] = target: PDF enzyme (Streptococcus pyogenes serotype M1, UniProt P68771); experiment: PDF/FDH coupled enzyme assay, Streptococcus pyogenes; assay type: biochemical
Sequence of PDF enzyme (Streptococcus pyogenes serotype M1, UniProt P68771) (P68771 whole entry): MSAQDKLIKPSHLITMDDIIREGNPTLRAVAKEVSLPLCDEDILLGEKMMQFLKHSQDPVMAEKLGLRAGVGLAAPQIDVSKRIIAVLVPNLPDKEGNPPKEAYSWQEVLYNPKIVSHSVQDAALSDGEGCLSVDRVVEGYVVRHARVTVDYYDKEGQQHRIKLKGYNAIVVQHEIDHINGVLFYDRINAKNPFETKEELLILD

[9] = Acute toxicity study in mice; conditions: mouse, in vivo, po, 4000 mg/kg; ICR mice, orally, observed for 14 days
Protocol: The acute toxicity of the compounds of Example 5, 17 and 22 were tested using several groups of ICR mice each of 6 mice.

[10] = microdilution, Mueller-Hinton Broth, 37° C., 24 hours
[11] = PDF/FDH coupled assay, substrate fMAS, absorption at 340 nm, read-out: IC50 Escherichia coli
[12] = PDF/FDH coupled assay, substrate fMAS, absorption at 340 nm, read-out: IC50 Streptococcus pyogenes

Q: Which MIC [1, 10] does the source give for Cc1ccc(CNC2CCN(C(=O)[C@@H](NC(=O)[C@H](CC3CCCC3)CN(O)C=O)C(C)(C)C)CC2)cc1 [Example 2, (R)-2-Cyclopentylmethyl-N-{(S)-2,2-dimethyl-1-[4-(4-methyl-benzylamino)-piperidine-1-carbonyl]-propyl}-3-(formyl-hydroxy-amino)-propionamide] here?
A: Its MIC is 0.1 µg/mL (≈ 0.194 µM).

Q: What about the IC50 [2, 11] of the same compound?
A: Its IC50 is 132 nM.

Q: And the MIC [3, 10]?
A: Its MIC is 0.2 µg/mL (≈ 0.389 µM).

Q: And the IC50 [4]?
A: The IC50 was 77 nM.

Q: What about the MIC [5, 10] of the same compound?
A: The MIC was 3.1 µg/mL (≈ 6.02 µM).

Q: What about the MIC [6, 10] of the same compound?
A: The MIC was 0.4 µg/mL (≈ 0.777 µM).

Q: What about the MIC [7, 10] of the same compound?
A: Its MIC is 0.4 µg/mL (≈ 0.777 µM).

Q: And the IC50 [8, 12]?
A: The IC50 was 86 nM.

Q: With COc1ccc(CNC2CCN(C(=O)[C@@H](NC(=O)[C@H](CC3CCCC3)CN(O)C=O)C(C)(C)C)CC2)cc1 [Example 5, (R)-2-Cyclopentylmethyl-3-(formyl-hydroxy-amino)-N-{(S)-1-[4-(4-methoxy-benzylamino)-piperidine-1-carbonyl]-2,2-dimethyl-propyl}-propionamide] as the compound, how does the MIC [1, 10] read?
A: The MIC was 0.2 µg/mL (≈ 0.377 µM).

Q: And the LD50 at 14 days [9]?
A: Its LD50 at 14 days is > 2000 mg/kg.

Q: What about the MIC [3, 10] of the same compound?
A: Its MIC is 0.4 µg/mL (≈ 0.754 µM).

Q: What about the MIC [5, 10] of the same compound?
A: The MIC was 6.3 µg/mL (≈ 11.9 µM).

Q: What about the MIC [6, 10] of the same compound?
A: Its MIC is 0.8 µg/mL (≈ 1.51 µM).

Q: And the MIC [7, 10]?
A: Its MIC is 1.6 µg/mL (≈ 3.01 µM).

Q: Which results are given for CC(C)(C)[C@H](NC(=O)[C@H](CC1CCCC1)CN(O)C=O)C(=O)N1CCC(NCc2ccc(O)cc2)CC1 [Example 6, (R)-2-Cyclopentylmethyl-3-(formyl-hydroxy-amino)-N-{(S)-1-[4-(4-hydroxy-benzylamino)-piperidine-1-carbonyl]-2,2-dimethyl-formyl}-propionamide]?
A: MIC [1, 10]: 0.8 µg/mL (≈ 1.55 µM); IC50 [2, 11]: 102 nM; MIC [3, 10]: 0.8 µg/mL (≈ 1.55 µM); IC50 [4]: 42 nM; MIC [5, 10]: > 50 µg/mL; MIC [6, 10]: 3.1 µg/mL (≈ 6 µM); MIC [7, 10]: 50 µg/mL (≈ 96.8 µM); IC50 [8, 12]: 84 nM

Q: What does the source list for CC(C)(C)[C@H](NC(=O)[C@H](CC1CCCC1)CN(O)C=O)C(=O)N1CCC(NCc2ccc(O)c(O)c2)CC1 [Example 13, (R)-2-Cyclopentylmethyl-N-{(S)-1-[4-(3,4-dihydroxy-benzylamino)-piperidine-1-carbonyl]-2,2-dimethyl-propyl}-3-(formyl-hydroxy-amino)-propionamide]?
A: IC50 [2]: 133 nM; IC50 [4]: 46 nM; IC50 [8]: 88 nM

Q: Which results are given for CC(C)(C)[C@H](NC(=O)[C@H](CC1CCCC1)CN(O)C=O)C(=O)N1CCC(Nc2ccc(F)cc2)CC1 [Example 17, (R)-2-Cyclopentylmethyl-N-{(S)-1-[4-(4-fluoro-phenylamino)-piperidine-1-carbonyl]-2,2-dimethyl-propyl}-3-(formyl-hydroxy-amino)-propionamide]?
A: MIC ([1]; 24 h): 0.2 µg/mL (≈ 0.396 µM); LD50 at 14 days [9]: > 2000 mg/kg; MIC ([3]; 24 h): 0.2 µg/mL (≈ 0.396 µM); MIC ([5]; 24 h): 3.1 µg/mL (≈ 6.14 µM); MIC ([6]; 24 h): 0.8 µg/mL (≈ 1.59 µM); MIC ([7]; 24 h): 0.4 µg/mL (≈ 0.793 µM)

Q: With CC(C)(C)[C@H](NC(=O)[C@H](CC1CCCC1)CN(O)C=O)C(=O)N1CCC(Nc2ccc(O)cc2)CC1 [Example 20, (R)-2-Cyclopentylmethyl-3-(formyl-hydroxy-amino)-N-{(S)-1-[4-(4-hydroxy-phenylamino)-piperidine-1-carbonyl]-2,2-dimethyl-formyl}-propionamide] as the compound, how does the MIC [1, 10] read?
A: Its MIC is 0.8 µg/mL (≈ 1.59 µM).

Q: And the IC50 [2, 11]?
A: Its IC50 is 102 nM.

Q: And the MIC [3, 10]?
A: Its MIC is 1.6 µg/mL (≈ 3.18 µM).

Q: What about the IC50 [4] of the same compound?
A: The IC50 was 63 nM.

Q: What about the MIC [5, 10] of the same compound?
A: The MIC was 25 µg/mL (≈ 49.7 µM).

Q: And the MIC [6, 10]?
A: The MIC was 3.1 µg/mL (≈ 6.17 µM).

Q: What about the MIC [7, 10] of the same compound?
A: The MIC was 25 µg/mL (≈ 49.7 µM).

Q: What about the IC50 [8, 12] of the same compound?
A: Its IC50 is 61 nM.

Q: Which results are given for CN(c1ccccc1)C1CCN(C(=O)[C@@H](NC(=O)[C@H](CC2CCCC2)CN(O)C=O)C(C)(C)C)CC1 [Example 22, (R)-2-Cyclopentylmethyl-N-{(S)-2,2-dimethyl-1-[4-(methyl-phenyl-amino)-piperidine-1-carbonyl]-propyl}-3-(formyl-hydroxy-amino)-propionamide]?
A: MIC [1, 10]: 0.05 µg/mL (≈ 0.0999 µM); IC50 [2, 11]: 113 nM; LD50 at 14 days [9]: > 2000 mg/kg; MIC [3, 10]: 0.05 µg/mL (≈ 0.0999 µM); IC50 [4]: 25 nM; MIC [5, 10]: 3.1 µg/mL (≈ 6.19 µM); MIC [6, 10]: 0.2 µg/mL (≈ 0.399 µM); MIC [7, 10]: 0.2 µg/mL (≈ 0.399 µM); IC50 [8, 12]: 42 nM

Q: What does the source list for CC(C)(C)[C@H](NC(=O)[C@H](CC1CCCC1)CN(O)C=O)C(=O)N1CCC(NCc2ccco2)CC1 [Example 27, (R)-2-Cyclopentylmethyl-3-(formyl-hydroxy-amino)-N-((S)-1-{4-[(furan-2-ylmethyl)-amino]-piperidine-1-carbonyl}-2,2-dimethyl-propyl)-propionamide]?
A: IC50 [2]: 117 nM; IC50 [4]: 42 nM; IC50 [8]: 63 nM

Q: Which IC50 [2] does the source give for COc1coc(CNC2CCN(C(=O)[C@@H](NC(=O)[C@H](CC3CCCC3)CN(O)C=O)C(C)(C)C)CC2)cc1=O [Example 29, (R)-2-Cyclopentylmethyl-3-(formyl-hydroxy-amino)-N-((S)-1-{4-[(5-methoxy-4-oxo-4H-pyran-2-ylmethyl)-amino]-piperidine-1-carbonyl}-2,2-dimethyl-propyl)-propionamide] here?
A: The IC50 was 155 nM.

Q: What about the IC50 [4] of the same compound?
A: The IC50 was 43 nM.

Q: And the IC50 [8]?
A: The IC50 was 54 nM.

Q: With CC(C)(C)[C@H](NC(=O)[C@H](CC1CCCC1)CN(O)C=O)C(=O)N1CCC(NCc2cc(=O)c(O)co2)CC1 [Example 30, (R)-2-Cyclopentylmethyl-3-(formyl-hydroxy-amino)-N-((S)-1-{4-[(5-hydroxy-4-oxo-4H-pyran-2-ylmethyl)-amino]-piperidin-1-carbonyl}-2,2-dimethyl-propyl)-propionamide] as the compound, how does the IC50 [2] read?
A: Its IC50 is 160 nM.

Q: What about the IC50 [4] of the same compound?
A: Its IC50 is 50 nM.

Q: And the IC50 [8]?
A: Its IC50 is 62 nM.

— patent US20100168421A1, “A NEW PEPTIDE DEFORMYLASE INHIBITOR COMPOUND AND MANUFACTURING PROCESS THEREOF” (priority 2007, published 2010)
